Key:
[1] = lutein supplementation and AMD incidence (our studies); type: in vivo; conditions: supplementation of 10 mg/day
Method: Therefore, the subject composition preferably provides preferably 10 mg of pure lutein per composition, e.g. per capsule.

[2] = lutein supplementation in human; cited from earlier work
[3] = AMD patients; cited from earlier work

For CC1=C[C@H](O)CC(C)(C)[C@H]1/C=C/C(C)=C/C=C/C(C)=C/C=C/C=C(C)/C=C/C=C(C)/C=C/C1=C(C)C[C@@H](O)CC1(C)C [Lutein], the AMD incidence [1] is listed as “decreases the AMD incidence” and the macular pigment [2] is listed as “increased macular pigment”.

In the case of Zinc, the visual field loss [3] is listed as “slows visual field loss”.

— patent publication US20100028459A1, “NUTRITIONAL SUPPLEMENT COMPOSITION FOR TREATMENT OF OCULAR DISEASES” (priority 2006, published 2010)
